Test results taken from patent publication US11339161B2, “Triazolo pyridines as modulators of gamma-secretase” (Boehringer Ingelheim International GmbH, priority 2017, dated 2022).
Read-outs that look alike come from different tables or passages of the source.

Tests used:
[1] = biological target: LYN B (Homo sapiens, UniProt P07948); experiment: Z'-LYTE SelectScreen biochemical kinase assay LYN B
Excerpt: (§1) Thermo Fisher Scientific SelectScreen™ Biochemical Kinase Profiling Service Z′-LYTE™ Screening Protocol and Assay Conditions Assay Theory
(§2) The […] biochemical assay employs a fluorescence-based, coupled-enzyme format and is based on the differential sensitivity of phosphorylated and non-phosphorylated peptides to proteolytic cleavage. The peptide substrate is labeled with two fluorophores—one at each end—that make up a FRET pair. In the primary reaction, the kinase transfers the gamma-phosphate of ATP to a single tyrosine, serine or threonine residue in a synthetic FRET-peptide. In the secondary reaction, a site-specific protease recognizes and cleaves non-phosphorylated FRET-peptides. Phosphorylation of FRET-peptides suppresses cleavage by the Development Reagent. Cleavage disrupts FRET between the donor (i.e., coumarin) and acceptor (i.e., fluorescein) fluorophores on the FRET-peptide, whereas uncleaved, phosphorylated FRET-peptides maintain FRET. A ratiometric method, which calculates the ratio (Emission Ratio=Coumarin emission (445 nm)/Fluorescein emission (520 nm)) of donor emission to acceptor emission after excitation of the donor fluorophore at 400 nm, is used to quantitate reaction progress, as shown in the equation below. A significant benefit of this ratiometric method for quantitating reaction progress is the elimination of well-to-well variations in FRET-peptide concentration and signal intensities. As a result, the assay yields very high Z′-factor values (>0.7) at a low percent phosphorylation. Both cleaved and uncleaved FRET-peptides contribute to the fluorescence signals and therefore to the Emission Ratio. The extent of phosphorylation of the FRET-peptide can be calculated from the Emission Ratio. The Emission Ratio will remain low if the FRET-peptide is phosphorylated (i.e., no kinase inhibition) and will be high if the FRET-peptide is non-phosphorylated (i.e., kinase inhibition).
(§3) The Test Compounds are screened in 1% DMSO (final) in the well. For 10 point titrations, 3-fold serial dilutions are conducted from the starting concentration of the customer's choosing.
(§4) All Peptide/Kinase Mixtures are diluted to a 2× working concentration in the appropriate Kinase Buffer (see section Kinase Specific Assay Conditions for a complete description).
(§5) All ATP Solutions are diluted to a 4× working concentration in Kinase Buffer (50 mM HEPES pH 7.5, 0.01% BRIJ-35, 10 mM MgCl2, 1 mM EGTA). ATP Km apparent is previously determined using a Z″-LYTE assay.
(§6) The Development Reagent is diluted in Development Buffer (see section Kinase-Specific Assay Conditions—Direct and Cascade for a complete description).
(§7) Bar-coded Corning, low volume NBS, black 384-well plate (Corning Cat. #4514) • 1. 100 nL—100× Test Compound in 100% DMSO • 2. 2.4 μL—Kinase buffer • 3. 5 μL—2× Peptide/Kinase Mixture • 4. 2.5 μL—4×ATP Solution • 5. 30—second plate shake • 6. 60—minute Kinase Reaction incubation at room temperature • 7. 5 μL—Development Reagent Solution • 8. 30—second plate shake • 9. 60—minute Development Reaction incubation at room temperature • 10. Read on fluorescence plate reader and analyze the data Z′-LYTE Assay Controls
(§8) SelectScreen Kinase Profiling Service uses XLfit from IDBS. The dose response curve is curve fit to model number 205 (sigmoidal dose-response model).
The 2×LYN B/Tyr 02 mixture is prepared in 50 mM HEPES pH 7.5, 0.01% BRIJ-35, 10 mM MgCl2, 1 mM EGTA. The final 10 μL Kinase Reaction consists of 0.85-14.8 ng LYN B and 2 μM Tyr 02 in 50 mM HEPES pH 7.5, 0.01% BRIJ-35, 10 mM MgCl2, 1 mM EGTA. After the 1 hour Kinase Reaction incubation, 5 μL of a 1:128 dilution of Development Reagent A is added.

[2] = test system: Aβ total; experiment: Aβ total levels in H4 neuroglioma cells stably expressing human APP695 (MSD electrochemiluminescence); format: cell-based; details: selectivity ratio vs. Aβtotal
Description: Cells were plated out to near confluency. The compounds to be tested were received as 10 mM stocks in 100% DMSO. A dilution series was initially generated in 100% DMSO and then diluted 200-fold in cell culture media such that the tested concentration range was 30 μM to 0.1 nM and the final DMSO concentration was 0.5%. The diluted compounds were incubated with the cells for 22 hours in an incubator at 37° C. and 5% CO2. Aβ42 levels were measured post-incubation from the supernatant of the cells using an Aβ42 specific electrochemiluminescence assay provided by Meso Scale Discovery (Catalog #L21CA-1). The measurement of Aβ42 levels were performed according to the manufacturer's protocol.
Aβ total levels were likewise determined using a specific electrochemiluminescence assay provided by Meso Scale Discovery (Catalog #L21ZA-1) according to the manufacturer's protocol.

[3] = biological target: FLT4 (VEGFR3) (Homo sapiens, UniProt P35916); experiment: Z'-LYTE SelectScreen biochemical kinase assay FLT4 (VEGFR3)
FLT4 (VEGFR3), sequence (P35916 25-1363): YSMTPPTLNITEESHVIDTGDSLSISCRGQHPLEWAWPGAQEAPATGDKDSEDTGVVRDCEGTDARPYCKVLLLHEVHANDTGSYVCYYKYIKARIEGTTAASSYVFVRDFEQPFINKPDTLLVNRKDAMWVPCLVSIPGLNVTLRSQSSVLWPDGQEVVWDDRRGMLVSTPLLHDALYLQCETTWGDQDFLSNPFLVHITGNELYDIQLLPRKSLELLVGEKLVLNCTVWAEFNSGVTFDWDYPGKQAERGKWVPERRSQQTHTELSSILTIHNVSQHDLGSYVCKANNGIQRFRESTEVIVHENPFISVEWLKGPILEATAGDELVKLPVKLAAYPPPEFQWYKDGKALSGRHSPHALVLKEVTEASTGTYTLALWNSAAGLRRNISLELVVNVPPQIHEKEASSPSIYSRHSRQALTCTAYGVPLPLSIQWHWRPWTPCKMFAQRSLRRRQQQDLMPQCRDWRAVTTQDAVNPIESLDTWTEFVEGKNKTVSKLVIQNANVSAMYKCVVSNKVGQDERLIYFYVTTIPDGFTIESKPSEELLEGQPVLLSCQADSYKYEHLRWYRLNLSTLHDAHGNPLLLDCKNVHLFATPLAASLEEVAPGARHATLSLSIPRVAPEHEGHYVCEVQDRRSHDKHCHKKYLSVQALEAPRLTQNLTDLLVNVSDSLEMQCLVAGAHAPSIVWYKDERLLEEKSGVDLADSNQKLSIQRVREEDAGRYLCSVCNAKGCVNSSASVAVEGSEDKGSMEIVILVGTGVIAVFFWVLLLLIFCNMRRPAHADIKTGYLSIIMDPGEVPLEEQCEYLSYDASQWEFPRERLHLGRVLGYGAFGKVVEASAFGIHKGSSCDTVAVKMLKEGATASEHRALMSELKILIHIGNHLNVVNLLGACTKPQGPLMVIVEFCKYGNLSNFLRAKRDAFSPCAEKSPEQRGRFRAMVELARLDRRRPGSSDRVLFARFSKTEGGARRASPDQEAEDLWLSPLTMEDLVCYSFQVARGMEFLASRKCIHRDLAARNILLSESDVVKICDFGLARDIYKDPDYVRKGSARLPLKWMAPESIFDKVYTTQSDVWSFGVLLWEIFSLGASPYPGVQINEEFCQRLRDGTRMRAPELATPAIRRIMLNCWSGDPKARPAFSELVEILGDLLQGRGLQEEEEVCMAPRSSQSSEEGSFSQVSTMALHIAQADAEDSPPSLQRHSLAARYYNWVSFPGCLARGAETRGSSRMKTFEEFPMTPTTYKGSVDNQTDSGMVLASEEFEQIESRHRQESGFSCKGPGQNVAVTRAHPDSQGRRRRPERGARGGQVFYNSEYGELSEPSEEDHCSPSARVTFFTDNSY
Excerpt: as §1, §2, §3, §4, §5, §6, §7, §8
The 2×FLT4 (VEGFR3)/Tyr 04 mixture is prepared in 50 mM HEPES pH 7.5, 0.01% BRIJ-35, 10 mM MgCl2, 4 mM MnCl2, 1 mM EGTA, 2 mM DTT. The final 10 μL Kinase Reaction consists of 2-10.5 ng FLT4 (VEGFR3) and 2 μM Tyr 04 in 50 mM HEPES pH 7.5, 0.01% BRIJ-35, 10 mM MgCl2, 2 mM MnCl2, 1 mM EGTA, 1 mM DTT. After the 1 hour Kinase Reaction incubation, 5 μL of a 1:64 dilution of Development Reagent B is added.

[4] = 10 μmolar compound concentration, ATP at Km app, read-out: LYN B inhibition
[5] = 10 μmolar compound concentration, ATP at Km app, read-out: FLT4 (VEGFR3) inhibition
[6] = read-out: % Inhibition mean LYN B
[7] = read-out: % Inhibition mean FLT4 (VEGFR3)

LYN B, sequence (P07948 1-491 isoform P07948-2): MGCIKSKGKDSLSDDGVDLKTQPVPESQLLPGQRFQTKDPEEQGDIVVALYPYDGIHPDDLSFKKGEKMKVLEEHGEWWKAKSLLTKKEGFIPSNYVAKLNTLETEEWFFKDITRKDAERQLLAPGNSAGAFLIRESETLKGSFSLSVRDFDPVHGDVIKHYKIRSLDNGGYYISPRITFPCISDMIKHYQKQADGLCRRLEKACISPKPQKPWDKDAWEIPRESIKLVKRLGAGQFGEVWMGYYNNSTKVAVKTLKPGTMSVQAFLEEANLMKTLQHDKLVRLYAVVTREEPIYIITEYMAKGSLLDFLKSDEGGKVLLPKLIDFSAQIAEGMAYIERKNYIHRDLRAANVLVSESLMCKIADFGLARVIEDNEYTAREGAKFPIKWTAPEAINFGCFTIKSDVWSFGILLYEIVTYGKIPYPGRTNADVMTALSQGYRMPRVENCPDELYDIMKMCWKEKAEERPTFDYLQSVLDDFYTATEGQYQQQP

Row | SMILES | inhibition at 10 µM [1, 4] | inhibition at 10 µM ([1]; read-out: % Inhibition mean) | Ratio AβTotal IC50/Aβ42 IC50 ([2]; prior art compounds, Table 4b) | inhibition at 10 µM [3, 5] | inhibition at 10 µM ([3]; read-out: % Inhibition mean) | inhibition at 10 µM [1, 6] | Ratio AβTotal IC50/Aβ42 IC50 ([2]; Table 4a) | inhibition at 10 µM [3, 7]
1 | CC1(C)C(=O)Nc2ccc(Nc3nc4c(-c5cccc(F)c5)cccn4n3)cc21 [Cpd. 263 in WO09155551, reference compound] | > 80% | 98% | 2 | > 80% | 103% |  |  | 
2 | Fc1cccc(-c2cccn3nc(Nc4ccc5[nH]cnc5c4)nc23)c1 [Cpd. 293 in WO09155551, reference compound] | > 80% | 89% | 1 | > 80% | 94% |  |  | 
3 | CC1(C)NC(=O)c2ccc(Nc3nc4c(-c5cccc(F)c5)cccn4n3)cc21 [Cpd. 302 in WO09155551, reference compound] | > 80% | 97% | 1 | > 80% | 96% |  |  | 
4 | Cc1cc(F)ccc1-c1cccn2nc(Nc3ccc4c(cnn4C)c3)nc12 [Example 9, [8-(4-fluoro-2-methyl-phenyl)-[1,2,4]triazolo[1,5-a]pyridine-2-yl]-(1-methyl-1H-indazol-5-yl)-amine] | < 40% |  |  | > 80% |  | 18% | 3 | 86%
5 | Cc1cc(F)ccc1-c1cccn2nc(NC3CCc4c(cnn4C)C3)nc12 (centres unmarked) [Example 10, [8-(4-fluoro-2-methyl-phenyl)-[1,2,4]triazolo[1,5-a]pyridine-2-yl]-(1-methyl-4,5,6,7-tetrahydro-1H-indazol-5-yl)-amine] | < 40% |  |  | < 40% |  | 17% | 27 | 22%
6 | Cc1cc(F)ccc1-c1cccn2nc(NC3CCc4cnn(C)c4C3)nc12 (centres unmarked) [Example 40, [8-(4-Fluoro-2-methyl-phenyl)-[1,2,4]triazolo[1,5-a]pyridine-2-yl]-(1-methyl-4,5,6,7-tetrahydro-1H-indazol-6-yl)-amine] | < 40% |  |  | < 40% |  | 20% | 1 | 16%
7 | CCn1ncc2c1CCC(Nc1nc3c(-c4ccc(F)cc4C)cccn3n1)C2 (centres unmarked) [Example 42, (1-Ethyl-4,5,6,7-tetrahydro-1H-indazol-5-yl)-[8-(4-fluoro-2-methyl-phenyl)-[1,2,4]triazolo[1,5-a]pyridine-2-yl]-amine] | < 40% |  |  | < 40% |  | 19% | 23 | 31%
8 | CCCn1ncc2c1CCC(Nc1nc3c(-c4ccc(F)cc4C)cccn3n1)C2 (centres unmarked) [Example 43, [8-(4-fluoro-2-methyl-phenyl)-[1,2,4]triazolo[1,5-a]pyridine-2-yl]-(1-propyl-4,5,6,7-tetrahydro-1H-indazol-5-yl)-amine] | < 40% |  |  | < 40% |  | 22% | 48 | 11%
9 | Cc1cc(F)ccc1-c1cccn2nc(NC3CCc4c(cnn4C(C)C)C3)nc12 (centres unmarked) [Example 44, [8-(4-fluoro-2-methyl-phenyl)-[1,2,4]triazolo[1,5-a]pyridine-2-yl]-(1-isopropyl-4,5,6,7-tetrahydro-1H-indazol-5-yl)-amine] | < 40% |  |  | 40 to 80% |  | 21% | 64 | 43%
10 | Cc1cc(F)ccc1-c1cccn2nc(NC3CCc4c(cnn4CC(C)C)C3)nc12 (centres unmarked) [Example 45, [8-(4-fluoro-2-methyl-phenyl)-[1,2,4]triazolo[1,5-a]pyridine-2-yl]-(1-isobutyl-4,5,6,7-tetrahydro-1H-indazol-5-yl)-amine] | < 40% |  |  | < 40% |  | 15% | 4 | 33%
11 | CCCCn1ncc2c1CCC(Nc1nc3c(-c4ccc(F)cc4C)cccn3n1)C2 (centres unmarked) [Example 46, [8-(4-fluoro-2-methyl-phenyl)-[1,2,4]triazolo[1,5-a]pyridine-2-yl]-(1-butyl-4,5,6,7-tetrahydro-1H-indazol-5-yl)-amine] | < 40% |  |  | < 40% |  | 23% | 4 | 29%
12 | CCCCCn1ncc2c1CCC(Nc1nc3c(-c4ccc(F)cc4C)cccn3n1)C2 (centres unmarked) [Example 47, [8-(4-fluoro-2-methyl-phenyl)-[1,2,4]triazolo[1,5-a]pyridine-2-yl]-(1-pentyl-4,5,6,7-tetrahydro-1H-indazol-5-yl)-amine] | < 40% |  |  | < 40% |  | 21% | 1 | 13%
13 | CCn1nc(Cl)c2c1CCC(Nc1nc3c(-c4ccc(F)cc4C)cccn3n1)C2 (centres unmarked) [Example 48, (3-Chloro-1-ethyl-4,5,6,7-tetrahydro-1H-indazol-5-yl)-[8-(4-fluoro-2-methyl-phenyl)-[1,2,4]triazolo[1,5-a]pyridine-2-yl]-amine] | < 40% |  |  | < 40% |  | 22% | 22 | 19%
14 | CCn1ncc2c1C(C)CC(Nc1nc3c(-c4cc(F)c(F)c(F)c4)cccn3n1)C2 (centres unmarked) [Example 49, (1-Ethyl-7-methyl-4,5,6,7-tetrahydro-1H-indazol-5-yl)-[8-(3,4,5-trifluoro-phenyl)-[1,2,4]triazolo[1,5-a]pyridine-2-yl]-amine] | < 40% |  |  | < 40% |  | 25% | 15 | 33%
15 | CCn1ncc2c1CC[C@@H](Nc1nc3c(-c4ccc(F)cc4C)cccn3n1)C2 [Example R-42, (R)-(1-Ethyl-4,5,6,7-tetrahydro-1H-indazol-5-yl)-[8-(4-fluoro-2-methyl-phenyl)-[1,2,4]triazolo[1,5-a]pyridine-2-yl]-amine] | < 40% |  |  | < 40% |  | 26% |  | 36%
